The results in this text go back to US20220185802A1, “BENZOXAZINE MONOMERS AND POLYMERIC COATINGS” (LUXEMBOURG INSTITUTE OF SCIENCE AND TECHNOLOGY (LIST), priority 2019, published 2022).

The test system of assay [1] is NF-κB activation. Description: Inflammation inhibitory activity, NF-κB-inducible SEAP reporter in THP-1 cells with TNFα as inducer. Type of assay: cell-based, human. Particulars: samples coated with polymer formed from the monomer in combination with P-e, film about 120 μm. An excerpt:
(§1) In human, inflammation can arise through the activation of nuclear factor-kappaB (NF-κB), a pivotal transcription factor in chronic inflammatory diseases, inducing the expression of numerous inflammation related-genes such as those for tumor necrosis factor α (TNFα) and cytokines such as IL-1β, IL-10, and IL-6 or IL-8 (Medzhitov R., Nature, 2008, 454, 428-435). In the present invention, an inflammation-relevant human cell line, i.e. the monocytes THP-1 cells, are used to evaluate the potential of the coatings to reduce the inflammation. Their cytotoxicity towards are first evaluated using the resazurin reduction test (O'Brien J. et al., Eur. J. Biochem., 2000, 267, 5421-5426.) General anti-inflammatory properties are then determined using THP-1 cells transfected with a reporter plasmid expressing the secreted alkaline phosphatase (SEAP) gene under the control of an NF-κB-inducible promoter. TNFα are used as an inflammation inducer and the data are expressed as percentage inhibition of NF-κB activation. In addition, the effects of the most promising monomers is further evaluated on inflammation-related genes by real time qPCR using THP-1 cells differentiated into macrophages (Andre C. M. et al., J. Agric. Food. Chem, 2013, 61, 2773-2779) and IL-1β, IL-10, IL-6, and COX-2 as markers (Kaulmann A. et al., Mol. Nutr. Food Res., 2016, 60, 992-1005).

For assay [2], the system named is THP-1 cells. Description: Pro-inflammatory activity of coated samples (FIG. 20). Type of assay: cell-based, human. Conditions: samples coated with film derived from the compound (monomers in combination with P-e; P-e alone).
From the text: as §1

The structures appear in SMILES notation.

On to `CC=Cc1cc2c(c(OC)c1)OCN(Cc1ccco1)C2` [Monomer 12], for which the “inhibition of the inflammation” value in assay [1] (TNFα as inducer) is approximately 20%. Further, the anti-inflammatory effect entry in assay [1] (in comparison with P-e or 13) is “strong anti-inflammatory effect”. For the same compound, the pro-inflammatory properties entry in assay [2] was “only the sample coated with the film derived from compound 13 shows a trend”.

With `c1ccc2c(c1)CN(CCN1COc3ccccc3C1)CO2` [P-e, reference compound], in assay [2], the pro-inflammatory properties entry is “only the sample coated with the film derived from compound 13 shows a trend”.
